No end group written: not given here. *: point of attachment. Palmitoyl = CCCCCCCCCCCCCCCC(=O)*
How the values were obtained:
TRPV6 = conditions: physiologically relevant concentrations; ref [19],[59]; cited from earlier work
TRPV6 WT = target: T1, TRPV6 WT (Homo sapiens, UniProt Q9H1D0); assay: Fura-2 Ca2+ imaging, TRPV6 WT; assay type: cell-based; conditions: HEK293 cells; 20 μM control peptide; effect likely attributable to ongoing channel inactivation
T1 construct: expressed in transfected cells; host or cells: HEK293 cells, transient transfection
T1 sequence (Q9H1D0 41-765 limits assumed): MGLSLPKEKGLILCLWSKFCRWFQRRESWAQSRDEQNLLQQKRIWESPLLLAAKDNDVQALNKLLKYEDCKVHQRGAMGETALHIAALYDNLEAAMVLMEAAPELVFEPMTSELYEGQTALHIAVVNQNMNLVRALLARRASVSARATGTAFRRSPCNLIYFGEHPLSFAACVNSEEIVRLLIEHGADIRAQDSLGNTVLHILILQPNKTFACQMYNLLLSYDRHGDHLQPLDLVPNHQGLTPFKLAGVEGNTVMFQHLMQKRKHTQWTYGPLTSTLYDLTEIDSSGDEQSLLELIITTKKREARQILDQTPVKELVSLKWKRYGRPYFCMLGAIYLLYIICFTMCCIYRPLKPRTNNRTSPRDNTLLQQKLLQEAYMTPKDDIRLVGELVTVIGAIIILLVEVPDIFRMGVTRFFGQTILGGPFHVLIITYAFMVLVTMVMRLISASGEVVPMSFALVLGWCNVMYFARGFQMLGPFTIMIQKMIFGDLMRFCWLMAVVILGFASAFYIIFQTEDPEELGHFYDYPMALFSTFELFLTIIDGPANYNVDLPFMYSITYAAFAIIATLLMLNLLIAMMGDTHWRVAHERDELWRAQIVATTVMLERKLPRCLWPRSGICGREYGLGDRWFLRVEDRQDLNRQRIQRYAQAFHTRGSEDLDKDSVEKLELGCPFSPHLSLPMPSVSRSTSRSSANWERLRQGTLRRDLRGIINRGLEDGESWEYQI

Substance | activation of TRPV6 (TRPV6) | decrease in cytosolic Ca2+ level (in words) (TRPV6 WT)
phosphatidylinositol-4-phosphate [PI(4)P] | does not activate TRPV6 | 
Palmitoyl-HAQKHFEAAA [control peptide, palmitoylated peptide having four of the basic residues of the pal-PIP2 peptide replaced by alanine] |  | slow, continuous reduction
